This is an account of results in US20260248809A1, “ESTRADIOL PRODRUGS AND METHODS OF USE THEREOF” (UNIVERSITY OF MARYLAND, BALTIMORE, priority 2022, published 2026).

Assay [1] relates to C3 expression. The settings on record: rat, in vivo; cited from earlier work.
In assay [2] the test system is ERβ-expressing BLA-to-NAc neurons. Put plainly: cFos immunofluorescence of ERβ projections to the NAc after E2 and SSDS. In kind it is in vivo, mouse.
Assay [3] has as its system gonadectomized mice. Put plainly: Inescapable foot shock stress followed by female urine preference. In kind it is in vivo, mouse. The conditions noted are these: 10 mm silastic implant; for stress-induced female urine preference deficits: orchiectomized males, inescapable foot shock. As for the experimental part:
Determine effects of E2 on gonadectomy-induced susceptibility to inescapable traumatic shock stress in males and females. Most of these experiments assess the effects of social defeat stress. In this experiment the effects of an alternative type of stress-inescapable foot shocks are assessed—to determine whether the observed biological effects of E2 are stress specific. […] The effects of this stress on maladaptive behaviors and their possible reversal by testosterone and E2 are assessed. The following groups of mice are used for this experiment: (1) Sham Surgery+empty silastic tube; (2) ORX+empty silastic tube; (3) Sham Surgery+testosterone (10 mm) containing silastic tube; (4) ORX+testosterone (10 mm) containing silastic tube; (5) Sham Surgery+E2 (10 mm) containing silastic tube; (6) ORX+E2 (10 mm) containing silastic tube. Mice are exposed to inescapable foot shock (0.3 mA shocks; 180 shocks at 15 sec intervals) in a two-chambered shuttle box with a permanent divider in place. Controls are placed in the same chambers but will not receive shocks. Twenty-four hours later mice are subsequently tested for social interaction and female urine preference. As a comparison to male results, a similar experiment is conducted in females with the following groups: (1) Sham Surgery+empty silastic tube; (2) OVX+empty silastic tube; (3) Sham Surgery+E2 (10 mm) containing silastic tube; (4) OVX+E2 (10 mm) containing silastic tube. It is predicted that the effects of orchiectomy in males are reproduced to enhance stress-induced decreases in female urine preference deficits, which will be prevented by both testosterone and E2.

Assay [4] concerns TRPM-2, ODC, AR and ERα expression. The conditions noted are these: in vivo; cited from earlier work.
The subject of assay [5] is mice. Put plainly: Acoustic startle response after traumatic foot shock stress. Type of assay: in vivo, mouse. The settings on record: acute foot shock stress, 10 mm silastic implant. The source says: Determine the role of E2 in traumatic stress-induced changes in startle response in males and females. Heightened startle reactivity is a DSM diagnostic criteria for PTSD. Individuals suffering from PTSD frequently report subjective elevations in startle response and objective studies have described increased startle reactivity in individuals with PTSD. Moreover, physiological startle response is correlated with the severity of self-reported hyperarousal symptom domains and attenuated by interventions that improve PTSD symptoms. In rodents, like humans, the startle response can be elicited by acoustic stimuli (acoustic startle response, ASR) and involves eyelid closure and skeletal muscle contractions. While ASR is frequently assessed via the eye blink reflex in humans, it can be accurately assayed via whole-body movements in rodents. Importantly, elevated ASR has been reported in rodents following traumatic stress, including electrical shock and social defeat stress. ASR is utilized as a measure of hyperarousal in mice following traumatic stress. Similar to previously described methods, ASR is assessed following acute foot shock stress. Baseline ASR is assessed over 10 startle stimuli (110 dB, pseudo-randomized average inter-stimulus interval of 30 sec). […] Changes in ASR are measured 24 hours after shock using the same startle protocol. […]

Regarding `C[C@]12CC[C@@H]3c4ccc(O)cc4CC[C@H]3[C@@H]1CC[C@@H]2O` [Example E2, 17β-Estradiol], the “uterus C3 expression” value in assay [1] is given as “increases C3 expression”. Also, the “activation of ERβ-expressing BLA-to-NAc neurons (c-Fos)” value in assay [2] (orchiectomized mice, acute treatment prior to SSDS) is reported as “activated at a significantly higher degree”. Besides, in assay [2] (prefrontal, cingulate and insular cortex projections), the “activation of the other strong ERβ-projections to the NAc (c-Fos)” value is “activation of any of the other strong ERβ-projections to the NAc in response to E2 was observed”. The “stress-induced female urine preference deficits” value in assay [3] is on record as “prevented”. The “effects of ovariectomy plus foot shock stress” value in assay [3] (ovariectomized females) is “prevented by the replacement of E2”. In addition, the “expression of TRPM-2, ODC, AR and ERα in the prostate gland” value in assay [4] is recorded as “decreases in the expression”. The “increased startle after stress+orchiectomy” value in assay [5] is given as “recoverable”.

On to `C[C@]12CC[C@H]3[C@@H](CCC4=CC(=O)CC[C@@]43C)[C@@H]1CC[C@@H]2O` [Testosterone, testosterone], for which the “stress-induced female urine preference deficits” value in assay [3] is “prevented”. In assay [5], the “increased startle after stress+orchiectomy” value is on record as “recoverable”.
